Laboratory results reported in US20250074920A1, “MACROCYCLIC COMPOUNDS AND USE AS KINASE INHIBITORS” (BLOSSOMHILL THERAPEUTICS, INC., priority 2022, published 2025).

Assays:
Experiment in all cases: KINOMEscan kinase binding assay
[1] = system: EPHA2; conditions: at 1 μM
Protocol: (§1) Kinase binding assays were performed at Eurofins/DiscoveRx using the general KINOMEscan Protocol (Fabian, M. A. et al., “A small molecule-kinase interaction map for clinical kinase inhibitors,” Nat. Biotechnol. 2005, 23(3):329-36). For most assays, kinase-tagged T7 phage strains were prepared in an E. coli host derived from the BL21 strain. E. coli were grown to log-phase and infected with T7 phage and incubated with shaking at 32° C. until lysis. The lysates were centrifuged and filtered to remove cell debris. The remaining kinases were produced in HEK-293 cells and subsequently tagged with DNA for qPCR detection. Streptavidin-coated magnetic beads were treated with biotinylated small molecule ligands for 30 minutes at room temperature to generate affinity resins for kinase assays. The liganded beads were blocked with excess biotin and washed with blocking buffer (SeaBlock (Pierce), 1% BSA, 0.05% Tween 20, 1 mM DTT) to remove unbound ligand and to reduce nonspecific binding. Binding reactions were assembled by combining kinases, liganded affinity beads, and test compounds in 1× binding buffer (20% SeaBlock, 0.17×PBS, 0.05% Tween 20, 6 mM DTT). All reactions were performed in polystyrene 96-well plates in a final volume of 0.135 mL. The assay plates were incubated at room temperature with shaking for 1 hour and the affinity beads were washed with wash buffer (1×PBS, 0.05% Tween 20). The beads were then re-suspended in elution buffer (1×PBS, 0.05% Tween 20, 0.5 μM non-biotinylated affinity ligand) and incubated at room temperature with shaking for 30 minutes. The kinase concentration in the eluates was measured by qPCR. Results for compounds tested in this assay at a given concentration are reported as “% Ctrl”, where lower numbers indicate stronger binding in the matrix. % Ctrl was calculated as (test compound signal-positive control signal)/(negative control signal-positive control signal)×100. Dissociation constants (Kds) for test compound-kinase interactions were calculated by measuring the amount of kinase captured on the solid support as a function of the test compound concentration.

[2] = system: LTK; conditions: at 1 μM
Protocol: as §1

[3] = system: EGFR(L747-S752del, P753S); conditions: at 1 μM
Protocol: as §1

[4] = system: FAK; conditions: at 1 μM
Protocol: as §1

[5] = system: PYK2; conditions: at 1 μM
Protocol: as §1

[6] = system: JAK2(JH1domain-catalytic); conditions: for % Ctrl: JAK2(JH1domain-catalytic), at 1 μM; for Kd: read-out: JAK2(JH1 domain-catalytic) Kd
Protocol: as §1

[7] = system: SRMS; conditions: at 1 μM
Protocol: as §1

[8] = system: ABL1(F3171)-phosphorylated; conditions: at 1 μM
Protocol: as §1

[9] = system: FLT3; conditions: at 1 μM
Protocol: as §1

[10] = system: IGF1R; conditions: at 1 μM
Protocol: as §1

[11] = system: TNK1; conditions: at 1 μM
Protocol: as §1

[12] = system: ERBB2; conditions: at 1 μM
Protocol: as §1

[13] = system: EGFR(G719C); conditions: at 1 μM
Protocol: as §1

[14] = system: ZAP70; conditions: at 1 μM
Protocol: as §1

[15] = system: EPHA1; conditions: at 1 μM
Protocol: as §1

[16] = system: EGFR(G719S); conditions: at 1 μM
Protocol: as §1

[17] = system: ABL1-nonphosphorylated; conditions: at 1 μM
Protocol: as §1

[18] = system: EPHA6; conditions: at 1 μM
Protocol: as §1

[19] = system: INSRR; conditions: at 1 μM
Protocol: as §1

[20] = system: TRKC; conditions: at 1 μM
Protocol: as §1

[21] = system: KIT(V559D); conditions: at 1 μM
Protocol: as §1

[22] = system: FGFR1; conditions: at 1 μM
Protocol: as §1

[23] = system: BMX; conditions: at 1 μM
Protocol: as §1

[24] = system: RET(V804M); conditions: at 1 μM
Protocol: as §1

[25] = system: EPHA4; conditions: at 1 μM
Protocol: as §1

[26] = system: FLT3(D835H); conditions: at 1 μM
Protocol: as §1

[27] = system: LCK; conditions: at 1 μM
Protocol: as §1

[28] = system: EGFR(T790M); conditions: at 1 μM
Protocol: as §1

[29] = system: BTK; conditions: at 1 μM
Protocol: as §1

[30] = system: FLT1; conditions: at 1 μM
Protocol: as §1

[31] = system: FLT3(K663Q); conditions: at 1 μM
Protocol: as §1

[32] = system: LYN; conditions: at 1 μM
Protocol: as §1

[33] = system: CSF1R; conditions: at 1 μM
Protocol: as §1

[34] = system: FLT3(D835V); conditions: at 1 μM
Protocol: as §1

[35] = system: EPHB2; conditions: at 1 μM
Protocol: as §1

[36] = system: KIT(A829P); conditions: at 1 μM
Protocol: as §1

[37] = system: FLT3(N841I); conditions: at 1 μM
Protocol: as §1

[38] = system: EPHA3; conditions: at 1 μM
Protocol: as §1

[39] = system: JAK3(JH1domain-catalytic); conditions: for % Ctrl: JAK3(JH1domain-catalytic), at 1 μM; for Kd: read-out: JAK3(JH1 domain-catalytic) Kd
Protocol: as §1

[40] = system: ERBB4; conditions: at 1 μM
Protocol: as §1

C[C@@H]1COCc2nn(C)cc2-c2cc(Cl)c3c(c2)/C(=C/c2[nH]ccc2C(=O)N1)C(=O)N3 [Cpd. 4, [3a(4)Z,10R]-20-chloro-10,15-dimethyl-10,11,13,15-tetrahydro-2H-1,17-(ethanediylidene)pyrazolo[4,3-m]dipyrrolo[3,2-f:3′,4′-i][1,4]oxazacyclopentadecine-3,8(5H,9H)-dione]
% Ctrl [1]: 96% | % Ctrl [2]: 100% | % Ctrl [3]: 90% | % Ctrl [4]: 96% | % Ctrl [5]: 92% | % Ctrl [6]: 57% | Kd [6]: 1.8 µM | % Ctrl [7]: 68% | % Ctrl [8]: 98% | % Ctrl [9]: 100% | % Ctrl [10]: 94% | % Ctrl [11]: 94% | % Ctrl [12]: 100% | % Ctrl [13]: 93% | % Ctrl [14]: 56% | % Ctrl [15]: 71% | % Ctrl [16]: 96% | % Ctrl [17]: 84% | % Ctrl [18]: 97% | % Ctrl [19]: 91% | % Ctrl [20]: 100% | % Ctrl [21]: 100% | % Ctrl [22]: 75% | % Ctrl [23]: 93% | % Ctrl [24]: 90% | % Ctrl [25]: 92% | % Ctrl [26]: 65% | % Ctrl [27]: 88% | % Ctrl [28]: 90% | % Ctrl [29]: 78% | % Ctrl [30]: 92% | % Ctrl [31]: 90% | % Ctrl [32]: 87% | % Ctrl [33]: 92% | % Ctrl [34]: 75% | % Ctrl [35]: 96% | % Ctrl [36]: 92% | % Ctrl [37]: 78% | % Ctrl [38]: 83% | % Ctrl [39]: 12% | Kd [39]: 0.059 µM | % Ctrl [40]: 100%

Cc1cc2c([nH]1)/C=C1\C(=O)Nc3ccc(cc31)-c1c(nn(C)c1C)OCCCN(C)C2=O [Cpd. 1, [3a(4)Z]-6,9,15,16-tetramethyl-9,10,11,12-tetrahydro-15H-1,17-(ethanediylidene)pyrazolo[4,3-n]dipyrrolo[3,2-g:3′,4′-j][1,5]oxazacyclopentadecine-3,8(2H,5H)-dione]
% Ctrl [1]: 97% | % Ctrl [2]: 74% | % Ctrl [3]: 100% | % Ctrl [4]: 85% | % Ctrl [5]: 100% | % Ctrl [6]: 98% | Kd [6]: > 10 µM | % Ctrl [7]: 93% | % Ctrl [8]: 64% | % Ctrl [9]: 92% | % Ctrl [10]: 100% | % Ctrl [11]: 100% | % Ctrl [12]: 98% | % Ctrl [13]: 81% | % Ctrl [14]: 94% | % Ctrl [15]: 100% | % Ctrl [16]: 80% | % Ctrl [17]: 87% | % Ctrl [18]: 94% | % Ctrl [19]: 94% | % Ctrl [20]: 94% | % Ctrl [21]: 91% | % Ctrl [22]: 100% | % Ctrl [23]: 67% | % Ctrl [24]: 100% | % Ctrl [25]: 96% | % Ctrl [26]: 96% | % Ctrl [27]: 95% | % Ctrl [28]: 88% | % Ctrl [29]: 94% | % Ctrl [30]: 97% | % Ctrl [31]: 80% | % Ctrl [32]: 100% | % Ctrl [33]: 98% | % Ctrl [34]: 61% | % Ctrl [35]: 97% | % Ctrl [36]: 93% | % Ctrl [37]: 97% | % Ctrl [38]: 86% | % Ctrl [39]: 81% | Kd [39]: > 10 µM | % Ctrl [40]: 95%
